Measured values from ChEMBL document CHEMBL1201862, “PubChem BioAssay data set” (2004).
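Five compound concentrations were applied to cells in 96-well plates for 48 hours; endpoints were derived by simple linear interpolation of the resulting dose-response curve. The concentration for 50% growth inhibition is given as GI50.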 The source made the active and inactive calls. Cut-off read from the data, not from the text of the source: active = GI50 up to about 1.1 µM and inactive = higher.

Key:
Assay in all cases: growth of human tumour cells (NCI), 48 h
[1] = test system: DLD-1
[2] = test system: HOP-18
[3] = test system: KM-20L2
[4] = test system: M19-MEL
[5] = test system: RXF 631
[6] = test system: SNB-78

Measured: GI50

O=C1C(=O)N(c2ccc(Cl)cc2Cl)C(=O)C(=O)C1c1nc2ccccc2o1
inactive: [1] > 100 µM | [2] > 100 µM | [3] > 100 µM | [4] > 100 µM | [5] > 100 µM | [6] > 100 µM

CCOC(=O)c1cnc2c(ccc3ncccc32)c1OCC
inactive: [1] 77.3 µM | [2] > 100 µM | [3] > 100 µM | [4] > 100 µM | [5] 84.5 µM | [6] > 100 µM

CSc1ccc(-c2cn3ccsc3n2)c(O)c1
inactive: [1] 40.4 µM | [2] > 76.6 µM | [3] > 65.2 µM | [5] > 70.8 µM | [6] 42.3 µM

COC(=O)C(C(=O)OC)C1CCCC(=O)C1 (stereo unspecified)
inactive: [1] > 100 µM | [2] > 100 µM | [3] > 100 µM | [4] > 100 µM | [6] > 100 µM

O=c1c(Br)cc2nc3ccccc3sc-2c1Br
inactive: [1] > 100 µM | [3] > 100 µM | [4] 17.5 µM | [5] > 100 µM | [6] > 100 µM

CC(C)(C)NC(=O)C12C3C4C1C1C2C3C41I (stereo unspecified)
inactive: [3] > 100 µM | [4] > 100 µM | [5] > 100 µM | [6] > 100 µM

CN(C)CCN1N=Nc2cccc3cccc1c23
inactive: [1] > 80.7 µM | [2] > 100 µM | [3] > 61.4 µM | [5] > 100 µM

CCCCCCCCCCCCCC/C(C(=O)OC)=C(/O)C(=O)OCC
inactive: [1] 30.5 µM | [2] 27.6 µM | [4] 54.8 µM | [5] 33 µM | [6] 64.1 µM

CC(C)c1cccc(=O)c(O)c1 [HINOKITIOL]
inactive: [1] 5.31 µM | [2] 15.3 µM | [3] 4.27 µM | [4] 13.3 µM | [5] 30.5 µM | [6] 48.3 µM

COc1ccc([C@@H]2C[C@@H]3C(=O)OC(=O)[C@@H]3c3c2c2ccccc2n3C)cc1
inactive: [1] > 100 µM | [4] > 100 µM | [5] > 100 µM

O=C1C2=C(CC3C(C2)C3(Br)Br)C(=O)C2=C1CC1C(C2)C1(Br)Br (stereo unspecified)
inactive: [1] > 100 µM | [2] > 100 µM | [3] > 100 µM | [4] 52.8 µM | [5] > 100 µM | [6] > 100 µM

O=C1c2ccccc2C(=O)N1CCCOCc1cnc(O)nc1O
inactive: [1] > 100 µM | [2] > 100 µM | [3] > 100 µM | [4] > 100 µM | [5] > 100 µM

CC1=C(c2cc(C(=O)Nc3ccc(Cl)cc3)nc(S)n2)Sc2ccccc2N1
inactive: [1] > 100 µM | [2] > 100 µM | [3] > 100 µM | [4] > 100 µM | [5] > 100 µM | [6] > 100 µM

CCOC(=O)c1ccc(/N=N\c2ccc(N(CCC#N)CCC#N)cc2C)cc1
inactive: [1] > 100 µM | [2] 51.6 µM | [4] > 100 µM | [5] > 100 µM | [6] > 100 µM

Cc1ccc(NC(=O)CC/C(CC(=O)C(C)(C)C)=N/Nc2nnc(C)n2N)cc1C
inactive: [2] > 100 µM | [3] > 100 µM | [4] > 100 µM | [5] > 100 µM | [6] > 100 µM

CC(C)(C)C1CCC2c3c([nH]c4ncccc34)C3C(=O)N(c4ccccc4)C(=O)C3C2C1 (stereo unspecified)
inactive: [1] > 100 µM | [2] > 100 µM | [3] > 100 µM | [4] > 100 µM | [6] 40.4 µM

Nc1c(-c2ccc(Cl)cc2)[n+]([O-])c2ccccc2[n+]1[O-]
inactive: [1] 88.7 µM | [2] 20.7 µM | [3] > 100 µM | [4] > 100 µM | [6] > 100 µM

Cc1cc(NS(=O)(=O)c2ccc(NC(=O)c3cccc4c(Nc5ccc(S(=O)(=O)Nc6cc(C)on6)cc5)c5ccc(Cl)cc5nc34)cc2)no1
inactive: [1] 63.2 µM | [2] 14.9 µM | [3] 74.1 µM | [4] 41.9 µM | [6] 91.6 µM

CCC(O)CCCCCCCCCCCCCCC(=O)O (stereo unspecified)
inactive: [1] > 100 µM | [2] > 100 µM | [4] > 100 µM | [5] 78.3 µM | [6] > 100 µM
